From US8192962B2, “Processes for detecting toxic substances” (Daikin Industries, Ltd., priority 2001, dated 2012)

System: Mitochondria-located protein genes
Experiment: DNA chip mRNA expression in yeast, mitochondria-located protein genes (Table 2)
Assay type: cell-based, Saccharomyces cerevisiae S288C
Conditions: cells incubated two hours with the chemical substance
Procedure, shortened: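 Ratios compare mRNA levels in stressed and control S. cerevisiae. Each toxicant was applied for two hours to log-phase cultures at 25° C. at a sub-lethal, growth-inhibiting level; fluorescent cDNA (Cy3- or Cy5-dUTP) was hybridized to a genome-wide yeast chip for over 12 h at 65° C.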

[Cl][Hg][Cl] [(3), HgCl2]
The level of expressed mRNA in the presence of chemical substance/The level of expressed mRNA in the absence of chemical substance (yeast gene YAL039C): 1.7 | The level of expressed mRNA in the presence of chemical substance/The level of expressed mRNA in the absence of chemical substance (yeast gene YBL022C): 1.2 | The level of expressed mRNA in the presence of chemical substance/The level of expressed mRNA in the absence of chemical substance (yeast gene YBL030C): 4.5 | The level of expressed mRNA in the presence of chemical substance/The level of expressed mRNA in the absence of chemical substance (yeast gene YBL038W): 0.5 | The level of expressed mRNA in the presence of chemical substance/The level of expressed mRNA in the absence of chemical substance (yeast gene YBL099W): 3.1 | The level of expressed mRNA in the presence of chemical substance/The level of expressed mRNA in the absence of chemical substance (yeast gene YBR003W): 1.0 | The level of expressed mRNA in the presence of chemical substance/The level of expressed mRNA in the absence of chemical substance (yeast gene YBR044C): 0.7 | The level of expressed mRNA in the presence of chemical substance/The level of expressed mRNA in the absence of chemical substance (yeast gene YBR091C): 0.6 | The level of expressed mRNA in the presence of chemical substance/The level of expressed mRNA in the absence of chemical substance (yeast gene YBR122C): 0.3 | The level of expressed mRNA in the presence of chemical substance/The level of expressed mRNA in the absence of chemical substance (yeast gene YBR185C): 1.3 | The level of expressed mRNA in the presence of chemical substance/The level of expressed mRNA in the absence of chemical substance (yeast gene YBR221C): 3.2 | The level of expressed mRNA in the presence of chemical substance/The level of expressed mRNA in the absence of chemical substance (yeast gene YBR251W): 1.0 | The level of expressed mRNA in the presence of chemical substance/The level of expressed mRNA in the absence of chemical substance (yeast gene YBR282W): 0.5 | The level of expressed mRNA in the presence of chemical substance/The level of expressed mRNA in the absence of chemical substance (yeast gene YCL057W): 2.3 | The level of expressed mRNA in the presence of chemical substance/The level of expressed mRNA in the absence of chemical substance (yeast gene YCR046C): 1.2 | The level of expressed mRNA in the presence of chemical substance/The level of expressed mRNA in the absence of chemical substance (yeast gene YCR083W): 1.5 | The level of expressed mRNA in the presence of chemical substance/The level of expressed mRNA in the absence of chemical substance (yeast gene YDL067C): 1.6 | The level of expressed mRNA in the presence of chemical substance/The level of expressed mRNA in the absence of chemical substance (yeast gene YDL181W): 1.9 | The level of expressed mRNA in the presence of chemical substance/The level of expressed mRNA in the absence of chemical substance (yeast gene YDL198C): 2.1 | The level of expressed mRNA in the presence of chemical substance/The level of expressed mRNA in the absence of chemical substance (yeast gene YDR079W): 0.8 | The level of expressed mRNA in the presence of chemical substance/The level of expressed mRNA in the absence of chemical substance (yeast gene YDR178W): 3.4 | The level of expressed mRNA in the presence of chemical substance/The level of expressed mRNA in the absence of chemical substance (yeast gene YDR231C): 1.0 | The level of expressed mRNA in the presence of chemical substance/The level of expressed mRNA in the absence of chemical substance (yeast gene YDR258C): 2.8 | The level of expressed mRNA in the presence of chemical substance/The level of expressed mRNA in the absence of chemical substance (yeast gene YDR298C): 2.6 | The level of expressed mRNA in the presence of chemical substance/The level of expressed mRNA in the absence of chemical substance (yeast gene YDR347W): 0.9 | The level of expressed mRNA in the presence of chemical substance/The level of expressed mRNA in the absence of chemical substance (yeast gene YDR377W): 1.3 | The level of expressed mRNA in the presence of chemical substance/The level of expressed mRNA in the absence of chemical substance (yeast gene YDR529C): 0.9 | The level of expressed mRNA in the presence of chemical substance/The level of expressed mRNA in the absence of chemical substance (yeast gene YEL024W): 3.8 | The level of expressed mRNA in the presence of chemical substance/The level of expressed mRNA in the absence of chemical substance (yeast gene YEL039C): 1.3 | The level of expressed mRNA in the presence of chemical substance/The level of expressed mRNA in the absence of chemical substance (yeast gene YER178W): 3.6 | The level of expressed mRNA in the presence of chemical substance/The level of expressed mRNA in the absence of chemical substance (yeast gene YFL016C): 1.6 | The level of expressed mRNA in the presence of chemical substance/The level of expressed mRNA in the absence of chemical substance (yeast gene YGL018C): 1.8 | The level of expressed mRNA in the presence of chemical substance/The level of expressed mRNA in the absence of chemical substance (yeast gene YGL187C): 1.6 | The level of expressed mRNA in the presence of chemical substance/The level of expressed mRNA in the absence of chemical substance (yeast gene YGL191W): 1.4 | The level of expressed mRNA in the presence of chemical substance/The level of expressed mRNA in the absence of chemical substance (yeast gene YGR008C): 1.7 | The level of expressed mRNA in the presence of chemical substance/The level of expressed mRNA in the absence of chemical substance (yeast gene YGR028W): 1.0 | The level of expressed mRNA in the presence of chemical substance/The level of expressed mRNA in the absence of chemical substance (yeast gene YGR062C): 0.7 | The level of expressed mRNA in the presence of chemical substance/The level of expressed mRNA in the absence of chemical substance (yeast gene YGR076C): 0.6 | The level of expressed mRNA in the presence of chemical substance/The level of expressed mRNA in the absence of chemical substance (yeast gene YGR082W): 2.2 | The level of expressed mRNA in the presence of chemical substance/The level of expressed mRNA in the absence of chemical substance (yeast gene YGR174C): 0.6 | The level of expressed mRNA in the presence of chemical substance/The level of expressed mRNA in the absence of chemical substance (yeast gene YGR244C): 1.6 | The level of expressed mRNA in the presence of chemical substance/The level of expressed mRNA in the absence of chemical substance (yeast gene YHR008C): 4.8 | The level of expressed mRNA in the presence of chemical substance/The level of expressed mRNA in the absence of chemical substance (yeast gene YIL155C): 1.4 | The level of expressed mRNA in the presence of chemical substance/The level of expressed mRNA in the absence of chemical substance (yeast gene YJL096W): 0.8 | The level of expressed mRNA in the presence of chemical substance/The level of expressed mRNA in the absence of chemical substance (yeast gene YJL102W): 0.4 | The level of expressed mRNA in the presence of chemical substance/The level of expressed mRNA in the absence of chemical substance (yeast gene YJL133W): 2.0 | The level of expressed mRNA in the presence of chemical substance/The level of expressed mRNA in the absence of chemical substance (yeast gene YJL166W): 1.6 | The level of expressed mRNA in the presence of chemical substance/The level of expressed mRNA in the absence of chemical substance (yeast gene YJL180C): 1.1 | The level of expressed mRNA in the presence of chemical substance/The level of expressed mRNA in the absence of chemical substance (yeast gene YJR045C): 3.9 | The level of expressed mRNA in the presence of chemical substance/The level of expressed mRNA in the absence of chemical substance (yeast gene YJR077C): 2.0
